# Key:
# [1] = tested on: Tg 2576 mice; assay: Aβ reducing action (brain Aβ by ELISA) using Tg 2576 mice; type: in vivo, mouse
# Description: (§1) Evaluation of Cognitive Function Improving Action and Aβ Reducing Action Using Tg 2576 Mice
# (§2) Four-month-old Tg 2576 mice received compounds involved with the present invention mixed in feed for 4 months. After completion of administration, the mORT test was performed to evaluate cognitive function, then the amount of brain Aβ was measured by ELISA. […] Discrimination index as indexes for evaluating cognitive function were as follows (vehicle, 0.064±0.049, 30 mg/kg/day; 0.330±0.062).
# [2] = biological target: T1, SSTR3 (Homo sapiens, UniProt P32745); assay: Binding affinity using cell membrane from cells expressing SSTR subtypes
# T1 construct: expressed in transfected cells
# [3] = biological target: human SSTR4 (Homo sapiens, UniProt P31391); assay: Binding affinity using cell membrane from human SSTR4-expressing Chem-1 cells, [125I] Tyr11-Somatostatin 14; design: expressed in transfected cells; details: 0.1 nmol/L [125I] Tyr11-Somatostatin 14, 2 hours at 25° C.
# Description: Binding affinity evaluation using cell membrane from human SSTR4-expressing cells
# From Chem-1 cells forcibly expressing human SSTR4, cell membrane was prepared by using Hepes Buffer. A reaction solution consisting of the prepared cell membrane, 0.1 nmol/L [^125I] Tyr11-Somatostatin 14, and a test compound was prepared, and incubated for 2 hours at 25° C. The cell membrane after incubation was filtered, and washed. After dried, the filter was immersed in a scintillator, its radioactivity was measured with a scintillation counter. By defining the difference in radioactivity between the substance not containing a test compound and the substance containing 1 μmol/L Somatostatin 14 as the specific binding amount, inhibitory rates of test compounds were calculated. Based on IC50 of the test compound calculated from the inhibition curve, the concentration of [^125I] Tyr11-Somatostatin 14, and Kd of Somatostatin 14, Ki of the test compound was calculated.
# [4] = tested on: Tg 2576 mice; assay: Cognitive function improving action (mORT) using Tg 2576 mice; type: in vivo, mouse; details: 30 mg/kg/day mixed in feed for 4 months
# Description: as §1, §2
# [5] = biological target: T2, SSTR2 (Homo sapiens, UniProt P30874); assay: Binding affinity using cell membrane from cells expressing SSTR subtypes
# T2 construct: expressed in transfected cells
# [6] = biological target: T3, SSTR5 (Homo sapiens, UniProt P35346); assay: as above
# T3 construct: expressed in transfected cells
# [7] = Pharmacokinetic test (PK test) using rodents; type: in vivo; details: mouse, brain and plasma; mice, 10 mg/kg oral, an hour and 4 hours after; read-out: brain-plasma concentration ratio
# Description: Moreover, it was verified, as the results of a pharmacokinetic test (PK test) using rodents, that the compound of the present invention has more excellent in vivo kinetics, central nervous system penetration, and exposure level, compared with the pyrrolidine derivative described in Patent Literature 1. In particular, the following Test Example 8 was performed.
# Pharmacokinetic Test (PK Test) Using Rodents
# Compounds of the present invention were orally administered to mice at a dose of 10 mg/kg, and an hour and 4 hours after, the plasma and the brain were collected, concentrations of the administered compounds were measured by LC/MS/MS. As well, protein binding rates in the plasma and the brain were measured with equilibrium dialysis method, and concentrations of non-binding compounds were calculated. The brain-plasma concentration ratio was about 5 in any cases of an hour and 4 hours after for compounds obtained in Examples 7, 14, 15, 16, 17, 18, 20, 21, 27, 40, and 50, which indicated excellent central nervous system penetration.
# [8] = tested on: SH-SY5Y cells stably expressing human neprilysin/human SSTR4; assay: Neprilysin membrane translocation test using human neprilysin/human SSTR4 coexpressing cells; type: cell-based
# Description: Neprilysin Membrane Translocation Test Using Human Neprilysin/Human SSTR4 Coexpressing Cells
# SH-SY5Y cells stably expressing human neprilysin/human SSTR4 were seeded to culture plates, and incubated in a 37° C./5% CO2 incubator overnight. On the next day, the compounds involved with the present invention were added, and cells were incubated in the 37° C./5% CO2 incubator another night. On the next day, 4% paraformaldehyde was added, and cells were fixed. The cells were washed, and blocked with 3% BSA solution. Then, immunostaining with an anti-neprilysin antibody and Alexa Fluor 488 donkey anti-mouse IgG was performed, and analyzed with an IN CELL Analyzer.
# [9] = biological target: T4, SSTR1 (Homo sapiens, UniProt P30872); assay: Binding affinity using cell membrane from cells expressing SSTR subtypes
# T4 construct: expressed in transfected cells
# [10] = tested on: Slc:ddY mice; assay: Mouse novel object recognition test (mORT); type: in vivo
# Description: Evaluation of cognitive function using mouse novel object recognition test (hereinafter, may be called “mORT”)
# In the mORT using Slc:ddY mice (male, Japan SLC, Inc.) with body weight of 25-45 g or 35-40 g, memory deterioration to familiar subject depending on the interval time between the first trial (training) and the second trial (test) is observed. If the second trial is performed 24 hours after performing the first trial, significant forgetting is observed. […] […] (discrimination index as indexes for cognitive function are shown: 0.5% MC receiving group, 0.054±0.026; 3 mg/kg receiving group, 0.245±0.066.)
# [11] = tested on: Slc:ddY mice; assay: Mouse Y-shaped maze test, scopolamine-induced memory impairment; type: in vivo; details: for spontaneous alternations: Scopolamine HBr 0.6 mg/kg subcutaneous
# Description: Evaluation of amelioration in cognitive impairment using mouse Y-shaped maze test (hereinafter, may be called “Y-maze test”)
# In the Y-maze test using Slc:ddY mice (male, Japan SLC, Inc.) with body weight of 25-35 g or 27-30 g, when 0.6 mg/kg of Scopolamine HBr (cat. No. S0929, Sigma Aldrich, USA) is subcutaneously administered to mice, memory impairment is caused, and reducing in spontaneous alternation is observed. Accordingly, mice were pre-treated by orally receiving compounds involved with the present invention, and ameliorating action in memory impairment was evaluated. […] (hereinafter, spontaneous alternations in each group in Example 21 are shown: 0.5% MC receiving group, 71.2±3.5; Scopolamine receiving group, 47.5±2.6; 1 mg/kg receiving group, 60.7±2.6; 3 mg/kg receiving group, 64.6±2.2.)
# [12] = tested on: Crlj: WI rats; assay: Acetylcholine release enhancing action, hippocampus microdialysis test using rats; type: in vivo, rat; details: 10 mg/kg (oral), 60 minutes after administration, high potassium stimulation
# Description: Examination of Acetylcholine Release Enhancing Action with Microdialysis Test Using Rats
# A guide cannula was placed into the hippocampus of Crlj: WI rats, and microdialysis was performed by inserting a probe after the animals were recovered. After administering the compounds involved with the present invention, the hippocampus was stimulated by changing the perfusate into the high potassium solution for 15 minutes. Acetylcholine levels in the perfusate were analyzed with a HPLC-ECD apparatus.
# [13] = 3 mg/kg oral, given after the first trial
# Chain of human SSTR4 (P31391 whole entry): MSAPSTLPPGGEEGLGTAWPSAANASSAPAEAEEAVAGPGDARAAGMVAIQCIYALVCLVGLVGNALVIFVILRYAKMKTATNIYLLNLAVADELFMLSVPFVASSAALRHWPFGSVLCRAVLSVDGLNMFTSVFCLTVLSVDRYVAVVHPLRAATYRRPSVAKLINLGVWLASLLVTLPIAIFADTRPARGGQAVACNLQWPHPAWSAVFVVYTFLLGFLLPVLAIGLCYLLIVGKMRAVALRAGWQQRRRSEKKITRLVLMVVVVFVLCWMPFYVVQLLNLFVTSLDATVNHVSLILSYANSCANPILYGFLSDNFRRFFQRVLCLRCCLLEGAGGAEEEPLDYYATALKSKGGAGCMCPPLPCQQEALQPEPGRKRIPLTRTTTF
# T3 sequence (P35346 whole entry, species assumed): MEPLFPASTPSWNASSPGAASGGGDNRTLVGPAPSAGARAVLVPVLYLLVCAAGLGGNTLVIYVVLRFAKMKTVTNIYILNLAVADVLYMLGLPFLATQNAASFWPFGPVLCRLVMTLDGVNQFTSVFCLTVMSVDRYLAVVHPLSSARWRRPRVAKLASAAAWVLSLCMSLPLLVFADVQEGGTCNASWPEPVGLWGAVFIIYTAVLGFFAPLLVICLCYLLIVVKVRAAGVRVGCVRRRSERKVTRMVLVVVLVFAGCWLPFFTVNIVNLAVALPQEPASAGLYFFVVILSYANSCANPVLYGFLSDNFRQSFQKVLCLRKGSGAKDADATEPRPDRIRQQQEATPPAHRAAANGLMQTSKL
# T1 sequence (P32745 whole entry, species assumed): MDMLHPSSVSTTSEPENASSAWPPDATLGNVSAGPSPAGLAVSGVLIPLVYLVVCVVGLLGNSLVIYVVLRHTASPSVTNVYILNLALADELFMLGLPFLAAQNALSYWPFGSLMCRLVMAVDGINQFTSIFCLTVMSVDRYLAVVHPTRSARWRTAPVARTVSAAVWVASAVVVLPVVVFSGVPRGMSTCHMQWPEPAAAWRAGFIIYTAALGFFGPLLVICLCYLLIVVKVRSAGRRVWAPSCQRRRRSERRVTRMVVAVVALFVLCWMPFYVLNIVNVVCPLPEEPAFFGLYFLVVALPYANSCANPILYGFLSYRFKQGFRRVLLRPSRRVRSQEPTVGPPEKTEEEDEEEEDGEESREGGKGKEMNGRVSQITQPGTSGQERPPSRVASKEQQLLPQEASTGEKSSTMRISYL
# T4 sequence (P30872 whole entry, species assumed): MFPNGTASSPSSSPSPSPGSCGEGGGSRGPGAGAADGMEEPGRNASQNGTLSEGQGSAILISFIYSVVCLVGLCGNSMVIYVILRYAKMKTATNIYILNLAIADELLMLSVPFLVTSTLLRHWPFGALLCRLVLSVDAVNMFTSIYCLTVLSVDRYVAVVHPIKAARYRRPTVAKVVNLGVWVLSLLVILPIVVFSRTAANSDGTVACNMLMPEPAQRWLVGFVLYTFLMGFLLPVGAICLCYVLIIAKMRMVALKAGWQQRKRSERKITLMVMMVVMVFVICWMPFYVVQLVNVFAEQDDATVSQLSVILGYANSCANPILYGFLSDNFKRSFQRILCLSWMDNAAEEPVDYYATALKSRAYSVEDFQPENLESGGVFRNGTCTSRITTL
# T2 sequence (P30874 whole entry, species assumed): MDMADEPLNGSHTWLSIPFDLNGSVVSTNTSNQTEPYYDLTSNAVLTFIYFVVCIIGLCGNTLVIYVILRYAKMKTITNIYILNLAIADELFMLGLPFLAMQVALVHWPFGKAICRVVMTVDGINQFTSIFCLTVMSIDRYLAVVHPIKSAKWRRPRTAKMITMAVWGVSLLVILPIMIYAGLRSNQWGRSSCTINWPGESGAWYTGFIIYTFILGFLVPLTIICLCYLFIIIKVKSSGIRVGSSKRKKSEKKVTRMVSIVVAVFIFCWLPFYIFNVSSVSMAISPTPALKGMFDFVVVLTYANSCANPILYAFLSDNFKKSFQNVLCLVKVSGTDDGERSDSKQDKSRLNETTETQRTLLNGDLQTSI
smiles,measurement,setting,value
"CN1CCC[C@H](C(=O)NC(C)(C)c2cc(Cl)ccc2Cl)C1 [Example 21, (3S)—N-[2-(2,5-dichlorophenyl)propane-2-yl]-1-methylpiperidine-3-carboxamide]",hippocampus Aβ42 reducing action compared with the Vehicle,[1]; 100 mg/kg/day,significant hippocampus Aβ42 reducing action
same,hippocampus Aβ42,[1]; 100 mg/kg/day mixed in feed for 4 months,198.11 ± 26.32 pmol/g
same,Ki,[2],> 3 µM
same,Ki,[3],21 nM
same,cognitive function improving action,[4],significant cognitive function improving action
same,discrimination index,[4],0.330±0.062
same,Ki,[5],> 5 µM
same,Ki,[6],> 5 µM
same,Kp,[7],~5
same,translocation of neprilysin to cell membrane,[8],concentration-dependently induced the translocation of neprilysin to cell membrane
same,EC50,"[8]; Homo sapiens, SH-SY5Y, overnight incubation, immunostaining, IN CELL Analyzer",9.3 nM
same,Ki,[9],1570 nM
same,memory enhancing action,"[10]; 3 mg/kg (oral), administered before the first trial",significant memory enhancing action
same,discrimination index,"[10]; 3 mg/kg oral, administered before the first trial, second trial 24 hours later",0.214±0.072
same,discrimination index,[10]; [13],0.245±0.066
same,memory enhancing action,[10]; [13],significant memory enhancing action
same,spontaneous alternations,[11]; 1 mg/kg oral,60.7±2.6
same,spontaneous alternations,[11]; 3 mg/kg oral,64.6±2.2
same,ameliorating action in memory impairment,[11]; at 1 or 3 mg/kg (oral),significant ameliorating action in memory impairment
same,acetylcholine level in hippocampus perfusate compared with the Vehicle,[12],significantly enhanced acetylcholine level
